Tested on: bacteria
Assay: Residual test on coated carriers, 10 minute contact time (organism not named)
Format: cell-based
Conditions: average over all inocula of the sample
Text: Solutions of examples 12-01 to 12-05 were used to coat polycarbonate or glass carriers. Once dried, bacteria were inoculated on top of the coating and a log reduction of bacteria was obtained after a certain contact time. CFU=Colony Forming Units, TNTC=Too numerous to count, BCP=benzalkonium chloride powder, ThP=thymol powder

## alkyldimethylbenzylammonium chloride [0.3 wt % benzalkonium chloride control]
  Average Log 10 Reduction: 0.5
